Experimental findings from publication PMC12146746 (Proceedings of the National Academy of Sciences of the …, 2025) are described below.

This assay concerns the target ceDCR-1/DRH-1/RDE-4 (Caenorhabditis elegans, UniProt G5EDI8). To be noted: 5 mM ATP, BLT 42-bp dsRNA with deoxynucleotides.

ceDCR-1/DRH-1/RDE-4, sequence (G5EDI8 1-1037): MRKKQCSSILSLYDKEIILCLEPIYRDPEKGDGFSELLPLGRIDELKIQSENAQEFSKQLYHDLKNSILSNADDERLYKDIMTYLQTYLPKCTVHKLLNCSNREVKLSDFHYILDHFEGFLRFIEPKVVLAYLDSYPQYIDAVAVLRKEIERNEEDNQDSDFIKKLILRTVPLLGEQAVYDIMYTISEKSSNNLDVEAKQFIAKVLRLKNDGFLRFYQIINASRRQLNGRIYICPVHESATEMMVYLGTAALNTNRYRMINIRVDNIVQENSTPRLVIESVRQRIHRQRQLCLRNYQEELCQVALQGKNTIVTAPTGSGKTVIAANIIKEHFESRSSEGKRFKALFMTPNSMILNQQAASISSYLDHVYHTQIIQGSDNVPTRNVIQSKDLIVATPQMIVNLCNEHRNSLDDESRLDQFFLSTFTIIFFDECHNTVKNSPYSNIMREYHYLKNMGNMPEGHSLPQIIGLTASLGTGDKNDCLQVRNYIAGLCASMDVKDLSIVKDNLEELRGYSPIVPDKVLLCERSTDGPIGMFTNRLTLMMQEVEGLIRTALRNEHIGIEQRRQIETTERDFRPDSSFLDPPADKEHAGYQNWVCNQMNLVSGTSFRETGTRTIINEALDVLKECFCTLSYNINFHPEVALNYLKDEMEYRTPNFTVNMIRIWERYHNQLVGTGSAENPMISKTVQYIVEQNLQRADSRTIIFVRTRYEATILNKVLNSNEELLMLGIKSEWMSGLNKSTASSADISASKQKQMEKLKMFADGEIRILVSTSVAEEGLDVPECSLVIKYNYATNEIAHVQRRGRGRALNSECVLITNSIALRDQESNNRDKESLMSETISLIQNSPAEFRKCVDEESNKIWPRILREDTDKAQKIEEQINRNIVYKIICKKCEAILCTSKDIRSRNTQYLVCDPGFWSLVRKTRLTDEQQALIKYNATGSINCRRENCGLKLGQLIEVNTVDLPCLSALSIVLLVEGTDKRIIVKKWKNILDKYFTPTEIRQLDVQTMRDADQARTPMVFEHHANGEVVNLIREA
ceDCR-1/DRH-1/RDE-4, sequence (P34529 whole entry partner): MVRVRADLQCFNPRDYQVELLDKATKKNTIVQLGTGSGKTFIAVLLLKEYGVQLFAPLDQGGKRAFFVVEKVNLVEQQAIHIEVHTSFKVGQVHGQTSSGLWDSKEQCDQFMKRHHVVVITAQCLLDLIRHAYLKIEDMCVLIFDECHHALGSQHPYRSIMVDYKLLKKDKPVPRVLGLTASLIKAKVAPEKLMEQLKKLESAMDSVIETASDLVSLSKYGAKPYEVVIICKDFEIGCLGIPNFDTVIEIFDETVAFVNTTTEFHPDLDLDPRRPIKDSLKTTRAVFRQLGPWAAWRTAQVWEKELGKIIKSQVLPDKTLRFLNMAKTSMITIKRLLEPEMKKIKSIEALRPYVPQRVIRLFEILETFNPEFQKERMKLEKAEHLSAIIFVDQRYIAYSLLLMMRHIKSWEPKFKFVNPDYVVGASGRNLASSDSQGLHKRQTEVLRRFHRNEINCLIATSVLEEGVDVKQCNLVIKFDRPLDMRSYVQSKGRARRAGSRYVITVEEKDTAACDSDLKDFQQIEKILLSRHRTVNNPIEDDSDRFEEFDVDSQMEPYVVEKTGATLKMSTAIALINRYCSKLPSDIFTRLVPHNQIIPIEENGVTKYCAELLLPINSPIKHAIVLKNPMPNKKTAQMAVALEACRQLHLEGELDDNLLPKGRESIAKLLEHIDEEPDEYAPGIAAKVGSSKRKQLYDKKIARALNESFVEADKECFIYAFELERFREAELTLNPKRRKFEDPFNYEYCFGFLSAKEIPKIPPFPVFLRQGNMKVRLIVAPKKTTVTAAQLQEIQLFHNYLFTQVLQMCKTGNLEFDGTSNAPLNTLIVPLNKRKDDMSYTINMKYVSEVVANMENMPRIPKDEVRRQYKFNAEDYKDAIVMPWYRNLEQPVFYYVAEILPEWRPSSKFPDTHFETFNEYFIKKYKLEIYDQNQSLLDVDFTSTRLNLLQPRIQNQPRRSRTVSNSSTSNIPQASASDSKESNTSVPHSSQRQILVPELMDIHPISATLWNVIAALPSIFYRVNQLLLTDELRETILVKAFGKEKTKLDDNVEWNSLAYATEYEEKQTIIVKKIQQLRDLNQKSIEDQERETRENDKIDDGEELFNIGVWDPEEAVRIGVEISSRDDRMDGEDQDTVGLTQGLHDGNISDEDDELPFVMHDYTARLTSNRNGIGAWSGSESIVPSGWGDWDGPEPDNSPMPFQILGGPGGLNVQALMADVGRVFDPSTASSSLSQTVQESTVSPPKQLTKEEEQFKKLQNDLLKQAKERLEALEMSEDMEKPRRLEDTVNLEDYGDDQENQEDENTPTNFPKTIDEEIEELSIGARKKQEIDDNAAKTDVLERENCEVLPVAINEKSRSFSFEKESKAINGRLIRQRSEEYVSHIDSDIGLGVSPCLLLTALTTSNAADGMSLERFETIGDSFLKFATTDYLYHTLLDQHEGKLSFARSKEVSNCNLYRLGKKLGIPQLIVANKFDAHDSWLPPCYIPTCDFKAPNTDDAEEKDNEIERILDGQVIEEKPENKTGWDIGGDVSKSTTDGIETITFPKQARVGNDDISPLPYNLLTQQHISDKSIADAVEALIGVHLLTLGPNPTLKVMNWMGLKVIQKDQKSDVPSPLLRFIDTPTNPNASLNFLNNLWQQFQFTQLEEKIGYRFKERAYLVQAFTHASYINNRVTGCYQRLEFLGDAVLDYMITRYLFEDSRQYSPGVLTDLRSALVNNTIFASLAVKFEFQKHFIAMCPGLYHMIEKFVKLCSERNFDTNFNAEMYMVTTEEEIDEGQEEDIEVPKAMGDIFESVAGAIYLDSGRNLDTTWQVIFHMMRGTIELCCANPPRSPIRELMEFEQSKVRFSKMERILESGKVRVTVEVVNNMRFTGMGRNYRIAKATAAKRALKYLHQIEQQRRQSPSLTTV
ceDCR-1/DRH-1/RDE-4, sequence (G5EBF5 1-385 partner): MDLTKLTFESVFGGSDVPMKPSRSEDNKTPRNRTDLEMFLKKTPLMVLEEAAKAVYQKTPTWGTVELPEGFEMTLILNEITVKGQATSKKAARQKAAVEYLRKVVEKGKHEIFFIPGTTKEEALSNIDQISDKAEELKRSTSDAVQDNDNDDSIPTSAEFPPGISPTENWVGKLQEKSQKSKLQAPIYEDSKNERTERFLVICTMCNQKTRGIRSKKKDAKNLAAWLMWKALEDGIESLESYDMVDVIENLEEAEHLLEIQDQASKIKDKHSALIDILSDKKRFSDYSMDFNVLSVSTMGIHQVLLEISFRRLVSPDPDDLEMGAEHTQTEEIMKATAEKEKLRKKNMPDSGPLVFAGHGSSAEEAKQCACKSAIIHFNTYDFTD

Consider `Nc1ncnc2c1ncn2[C@@H]1O[C@H](COP(=O)(O)OP(=O)(O)OP(=O)(O)O)[C@@H](O)[C@H]1O` [ATP], for which the “streptavidin-displacement (ATP-dependent translocation)” value was “Wildtype C. elegans antiviral complex showed ATP-dependent streptavidin displacement on this substrate”.
